{"source": "ChEMBL document CHEMBL1201862", "about": "“PubChem BioAssay data set” (2004)", "key": {"[1]": {"assay": "viability of HCT116 lacking mutant beta-catenin – cell-based, human colon tumor, dose response (AID 1045);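 also: cells exposed to compound for 60 hours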", "type": "functional"}, "[2]": {"assay": "viability of PTEN-deleted HCT116 cells – cell-based, HCT116 PTEN knockout, dose response (AID 1047);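 also: cells exposed to compound for 60 hours before readout; potency for loss of cell viability measured by luminescence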", "type": "functional"}, "[3]": {"assay": "Luminescence Cell-Based Dose Response HTS to Identify Inhibitors of 5'UTR Stem-Loop Driven Prion Protein mRNA Translation in H4 Neuroglioblastoma Cells. [Related pubchem assays: 1827 (Project Summary), 1813 (Primary HTS)]", "type": "functional"}, "BJ [4]": {"system": "BJ", "assay": "BJ-TERT-LT-ST fibroblast viability loss – cell-based, RAS-independent, luminescence, dose response (AID 1935);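 also: BJ fibroblasts immortalized with TERT plus LT and ST oncogenes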", "type": "functional", "conditions": "Homo sapiens"}, "Streptokinase A": {"target": "T1, Streptokinase A (Streptococcus pyogenes serotype M1, UniProt P10520)", "T1 sequence (P10520 whole entry)": "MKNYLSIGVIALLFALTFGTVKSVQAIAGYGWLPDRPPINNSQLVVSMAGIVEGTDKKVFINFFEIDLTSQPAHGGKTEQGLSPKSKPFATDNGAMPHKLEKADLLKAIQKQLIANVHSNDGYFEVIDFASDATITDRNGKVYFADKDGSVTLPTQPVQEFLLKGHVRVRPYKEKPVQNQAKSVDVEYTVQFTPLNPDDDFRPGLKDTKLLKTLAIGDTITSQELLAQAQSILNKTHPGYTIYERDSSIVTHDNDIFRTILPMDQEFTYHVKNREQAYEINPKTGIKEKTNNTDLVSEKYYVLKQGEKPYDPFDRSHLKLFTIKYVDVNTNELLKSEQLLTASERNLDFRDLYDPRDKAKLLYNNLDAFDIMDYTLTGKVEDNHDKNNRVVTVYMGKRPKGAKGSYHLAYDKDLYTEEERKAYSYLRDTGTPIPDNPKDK", "assay": "viability-normalized secreted streptokinase activity reduction – plasminogen activation absorbance, OD405, dose response (AID 1914)", "type": "functional, Streptococcus pyogenes M1 GAS"}, "Streptococcus": {"system": "Streptococcus", "assay": "GAS UMAA2166 growth inhibition – luminescence, BacTiterGlo, counter-screen for streptokinase expression inhibitor project, dose response (AID 1915);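 also: potency for reduction of bacterial viability or growth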", "type": "functional, organism-based"}, "[5]": {"assay": "alpha-synuclein stem-loop luciferase translation blockers – H4 neuroglioma cells, luminescence, confirmation (AID 1988)", "type": "functional, cell-based"}, "BJ [6]": {"system": "BJ", "assay": "cells", "type": "functional, cell-based", "conditions": "Homo sapiens"}, "[7]": {"system": "Streptococcus sp. 'group A'", "assay": "Streptococcus pyogenes SK(-)GAS viability under kanamycin – luminescence, BacTiterGlo, confirmation, counter-screen for streptokinase expression inhibitor project, dose response (AID 1900)", "type": "functional, organism-based"}, "BJ [8]": {"system": "BJ", "assay": "BJ-TERT fibroblast viability loss – cell-based, RAS-independent, luminescence, dose response (AID 1933)", "type": "functional", "conditions": "Homo sapiens"}, "[9]": {"assay": "luciferase reporter signal suppression in cells – H4 neuroglioma cells, luminescence, dose response (AID 1990)", "type": "functional, cell-based"}, "[10]": {"assay": "DRD fibroblast viability loss – cell-based, non-viral oncogenic, luminescence, dose response (AID 1934)", "type": "functional", "conditions": "Homo sapiens"}, "Paired box protein Pax-8": {"target": "Paired box protein Pax-8 (Homo sapiens, UniProt Q06710)", "sequence (Q06710 whole entry)": "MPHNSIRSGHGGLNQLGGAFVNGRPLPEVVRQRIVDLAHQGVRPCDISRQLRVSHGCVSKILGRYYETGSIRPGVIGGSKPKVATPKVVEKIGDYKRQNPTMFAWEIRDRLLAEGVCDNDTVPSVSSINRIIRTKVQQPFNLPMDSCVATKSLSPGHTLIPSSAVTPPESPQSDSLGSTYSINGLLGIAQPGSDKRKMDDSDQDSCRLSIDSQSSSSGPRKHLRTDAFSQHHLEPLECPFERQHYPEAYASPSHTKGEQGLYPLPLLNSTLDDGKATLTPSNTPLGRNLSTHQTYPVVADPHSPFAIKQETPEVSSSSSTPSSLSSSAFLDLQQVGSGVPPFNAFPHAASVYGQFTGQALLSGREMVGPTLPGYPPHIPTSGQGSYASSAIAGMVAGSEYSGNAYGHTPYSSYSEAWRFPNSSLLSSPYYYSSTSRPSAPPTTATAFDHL", "assay": "PAX8 transcriptional activity inhibition in RMG-I – RMG-I cells, luciferase, cherry-pick, dose response (AID 687027);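 also: luciferase reporter driven by Pax8 target thyroperoxidase promoter measured by SteadyGlo luminescence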", "type": "functional, cell-based"}, "Cytochrome P450 3A4": {"target": "Cytochrome P450 3A4 (Homo sapiens, UniProt P08684)", "sequence (P08684 whole entry)": "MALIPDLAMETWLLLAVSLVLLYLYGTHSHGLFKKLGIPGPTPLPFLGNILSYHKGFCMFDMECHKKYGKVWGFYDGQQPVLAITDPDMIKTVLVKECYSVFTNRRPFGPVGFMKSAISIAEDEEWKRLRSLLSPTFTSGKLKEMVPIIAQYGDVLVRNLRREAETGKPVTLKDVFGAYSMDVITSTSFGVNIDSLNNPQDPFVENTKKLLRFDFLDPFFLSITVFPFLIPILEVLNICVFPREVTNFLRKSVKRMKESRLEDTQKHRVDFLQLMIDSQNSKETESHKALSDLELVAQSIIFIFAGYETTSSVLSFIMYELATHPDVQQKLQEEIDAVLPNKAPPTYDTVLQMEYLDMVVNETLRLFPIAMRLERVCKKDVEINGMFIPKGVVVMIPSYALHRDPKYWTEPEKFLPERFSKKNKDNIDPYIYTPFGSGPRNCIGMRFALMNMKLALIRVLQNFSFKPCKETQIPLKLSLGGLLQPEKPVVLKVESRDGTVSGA"}, "[11]": {"assay": "NIH-3T3 fibroblast cytotoxicity, dose response, cytotoxicity control, cell-based, fluorescence, Alamar Blue, secondary assay (AID 2327);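 also: NIH-3T3 mouse fibroblasts cultured with fluconazole at 8 µg/mL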", "type": "functional"}, "[12]": {"assay": "fluconazole-exposed Candida albicans growth modulators – fluorescence, retest, confirmation (AID 2467)", "type": "functional, cell-based"}, "Leucine aminopeptidase": {"target": "T2, Leucine aminopeptidase (Plasmodium falciparum 3D7, UniProt Q8IL11)", "T2 sequence (Q8IL11 whole entry)": "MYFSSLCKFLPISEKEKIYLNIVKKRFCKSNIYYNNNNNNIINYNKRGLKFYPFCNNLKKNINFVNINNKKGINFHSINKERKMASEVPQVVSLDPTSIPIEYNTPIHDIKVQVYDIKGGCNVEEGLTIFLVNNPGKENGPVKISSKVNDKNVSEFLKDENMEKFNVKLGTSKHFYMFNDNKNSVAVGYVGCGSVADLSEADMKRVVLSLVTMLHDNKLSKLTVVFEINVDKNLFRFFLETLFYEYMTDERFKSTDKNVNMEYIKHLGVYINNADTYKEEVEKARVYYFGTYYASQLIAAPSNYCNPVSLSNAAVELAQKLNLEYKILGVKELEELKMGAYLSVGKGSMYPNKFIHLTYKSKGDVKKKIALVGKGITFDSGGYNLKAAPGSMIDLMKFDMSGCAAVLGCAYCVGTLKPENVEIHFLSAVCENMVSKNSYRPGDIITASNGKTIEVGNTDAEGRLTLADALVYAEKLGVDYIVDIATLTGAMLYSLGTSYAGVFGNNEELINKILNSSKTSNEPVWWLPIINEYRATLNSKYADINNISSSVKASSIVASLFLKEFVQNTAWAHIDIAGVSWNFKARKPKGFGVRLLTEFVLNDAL", "assay": "P. falciparum M17LAP inhibitors, primary screen, biochemical, fluorogenic H-Leu-NHMec substrate, 1536-well (AID 1619)", "type": "functional"}, "Cytochrome P450 2C19": {"target": "Cytochrome P450 2C19 (Homo sapiens, UniProt P33261)", "sequence (P33261 whole entry)": "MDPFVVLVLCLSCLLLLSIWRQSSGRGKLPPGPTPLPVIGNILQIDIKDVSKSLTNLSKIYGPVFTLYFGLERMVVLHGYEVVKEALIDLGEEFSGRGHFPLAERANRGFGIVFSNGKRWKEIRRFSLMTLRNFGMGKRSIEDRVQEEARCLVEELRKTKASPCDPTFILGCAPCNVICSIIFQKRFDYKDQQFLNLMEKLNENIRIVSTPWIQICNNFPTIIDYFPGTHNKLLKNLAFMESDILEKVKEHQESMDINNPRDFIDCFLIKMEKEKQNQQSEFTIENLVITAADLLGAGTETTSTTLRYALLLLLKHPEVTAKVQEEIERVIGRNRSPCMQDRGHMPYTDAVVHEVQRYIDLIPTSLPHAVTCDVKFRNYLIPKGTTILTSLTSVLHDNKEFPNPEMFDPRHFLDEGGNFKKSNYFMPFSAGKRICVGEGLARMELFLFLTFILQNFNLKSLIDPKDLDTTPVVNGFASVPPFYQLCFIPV", "assay": "Cytochrome panel assay with activity outcomes. Panel member name: p450-cyp2c19 Compounds with AC50 equal or less than 10 uM are considered active", "type": "functional", "conditions": "read-out: AC50"}, "Cytochrome P450 2C9": {"target": "Cytochrome P450 2C9 (Homo sapiens, UniProt P11712)", "sequence (P11712 whole entry)": "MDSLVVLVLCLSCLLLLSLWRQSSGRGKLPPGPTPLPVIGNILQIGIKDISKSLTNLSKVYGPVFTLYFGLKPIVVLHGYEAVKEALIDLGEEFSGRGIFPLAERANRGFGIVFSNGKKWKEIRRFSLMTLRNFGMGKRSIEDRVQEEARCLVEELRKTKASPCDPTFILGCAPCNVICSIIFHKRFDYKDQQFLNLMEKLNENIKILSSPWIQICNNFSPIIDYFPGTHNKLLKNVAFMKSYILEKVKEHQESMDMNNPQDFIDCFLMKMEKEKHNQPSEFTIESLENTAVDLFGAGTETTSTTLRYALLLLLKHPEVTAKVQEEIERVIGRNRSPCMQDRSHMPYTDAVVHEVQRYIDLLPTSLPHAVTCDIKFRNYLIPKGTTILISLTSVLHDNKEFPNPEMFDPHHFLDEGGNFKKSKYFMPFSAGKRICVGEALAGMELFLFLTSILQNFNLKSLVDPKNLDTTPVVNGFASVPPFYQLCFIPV"}, "[13]": {"target": "FAD-linked sulfhydryl oxidase ALR (Homo sapiens, UniProt P55789)", "sequence (P55789 whole entry)": "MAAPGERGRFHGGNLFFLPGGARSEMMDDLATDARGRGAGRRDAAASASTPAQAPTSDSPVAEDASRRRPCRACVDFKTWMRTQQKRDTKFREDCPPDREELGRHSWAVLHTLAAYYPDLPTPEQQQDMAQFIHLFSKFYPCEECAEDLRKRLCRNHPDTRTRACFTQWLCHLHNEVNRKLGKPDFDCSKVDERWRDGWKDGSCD", "assay": "ALR-catalysed DTT oxidation blockers – biochemical, H2O2 detection, luminescence, cherry-pick, dose response (AID 493248)"}, "Cytochrome P450 2D6": {"target": "Cytochrome P450 2D6 (Homo sapiens, UniProt P10635)", "sequence (P10635 whole entry)": "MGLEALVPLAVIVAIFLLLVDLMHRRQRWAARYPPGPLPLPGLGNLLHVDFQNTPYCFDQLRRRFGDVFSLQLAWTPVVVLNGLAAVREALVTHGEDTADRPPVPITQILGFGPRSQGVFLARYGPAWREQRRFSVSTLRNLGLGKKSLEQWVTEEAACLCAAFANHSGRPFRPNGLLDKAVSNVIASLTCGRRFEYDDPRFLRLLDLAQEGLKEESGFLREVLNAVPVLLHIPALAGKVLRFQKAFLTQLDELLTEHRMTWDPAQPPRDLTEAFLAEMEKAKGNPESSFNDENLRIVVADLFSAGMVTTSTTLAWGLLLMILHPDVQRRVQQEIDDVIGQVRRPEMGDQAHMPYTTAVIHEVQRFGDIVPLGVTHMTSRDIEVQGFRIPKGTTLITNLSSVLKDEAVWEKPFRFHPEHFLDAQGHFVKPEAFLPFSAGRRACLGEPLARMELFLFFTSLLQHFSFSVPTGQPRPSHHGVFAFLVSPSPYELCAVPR"}}, "note": "Calls of active or inactive are those of the source.", "data": [{"smiles": "Cc1cccc(NC(=O)Cn2cnc3c(cnn3-c3ccc(F)cc3)c2=O)c1C", "values": [{"measurement": "EC50", "setting": "[1]", "value": "14.2 µM (active)"}, {"measurement": "EC50", "setting": "[2]", "value": "6.93 µM (active)"}]}, {"smiles": "CSc1nc(Oc2ccc3ccccc3c2)c2sccc2n1", "values": [{"measurement": "EC50", "setting": "[3]", "value": "> 120 µM (not active)"}, {"measurement": "EC50", "setting": "BJ [4]", "value": "13.6 µM (inconclusive)"}, {"measurement": "EC50", "setting": "Streptokinase A", "value": "39.1 µM (active)"}, {"measurement": "EC50", "setting": "Streptococcus", "value": "> 150 µM (not active)"}, {"measurement": "EC50", "setting": "[5]", "value": "8.16 µM (active)"}, {"measurement": "EC50", "setting": "BJ [6]", "value": "52.3 µM (active)"}, {"measurement": "EC50", "setting": "[7]", "value": "34.3 µM (active)"}, {"measurement": "EC50", "setting": "BJ [8]", "value": "12.5 µM (active)"}, {"measurement": "EC50", "setting": "[9]", "value": "12.9 µM (active)"}, {"measurement": "EC50", "setting": "[10]", "value": "12.8 µM (inconclusive)"}]}, {"smiles": "CN(NC(=O)c1ccccc1)c1nc2ccccc2nc1C(F)(F)F", "values": [{"measurement": "EC50", "setting": "BJ [4]", "value": "17.3 µM (active)"}, {"measurement": "EC50", "setting": "BJ [6]", "value": "26.9 µM (active)"}, {"measurement": "EC50", "setting": "BJ [8]", "value": "18.4 µM (active)"}, {"measurement": "EC50", "setting": "[10]", "value": "16.5 µM (active)"}]}, {"smiles": "Cc1ccc(S(=O)(=O)N[C@@H]2C=C[C@@H](CC(=O)N3CCC(Cc4ccccc4)CC3)O[C@@H]2CO)cc1", "values": [{"measurement": "AC50", "setting": "Paired box protein Pax-8", "value": "13.3 µM (active)"}]}, {"smiles": "Cc1noc(C)c1C(=O)N1CCC2(CCCN(Cc3ccccc3)C2)CC1", "values": [{"measurement": "AC50", "setting": "Cytochrome P450 3A4", "value": "25.1 µM (inconclusive)"}]}, {"smiles": "CCCC(O)(CCC)C(=O)NNc1ccc(C)cc1", "values": [{"measurement": "EC50", "setting": "[11]", "value": "> 160 µM (inconclusive)"}, {"measurement": "EC50", "setting": "[12]", "value": "> 38 µM (not active)"}]}, {"smiles": "CC(=O)c1ncnn1CC(=O)c1ccc(Cl)cc1Cl", "values": [{"measurement": "EC50", "setting": "[11]", "value": "21.9 µM (inconclusive)"}, {"measurement": "EC50", "setting": "[12]", "value": "1.37 µM (active)"}]}, {"smiles": "c1ccc(-c2nnc(Sc3ncnc4c3cnn4-c3ccccc3)[nH]2)cc1", "values": [{"measurement": "IC50", "setting": "Leucine aminopeptidase", "value": "64.8 µM (active)"}]}, {"smiles": "O=C(O)c1cccc(CN2C(=O)SC(Nc3ccccc3)C2=O)c1", "note": "(centres undefined)", "values": [{"measurement": "IC50", "setting": "Leucine aminopeptidase", "value": "34.3 µM (active)"}]}, {"smiles": "O=C(c1ccncc1)N1CCC[C@@]2(CCN(c3ncccn3)C2)C1", "values": [{"measurement": "AC50", "setting": "Cytochrome P450 3A4", "value": "15.8 µM (inconclusive)"}, {"measurement": "AC50", "setting": "Cytochrome P450 2C19", "value": "25.1 µM (inconclusive)"}, {"measurement": "AC50", "setting": "Cytochrome P450 2C9", "value": "20 µM (inconclusive)"}]}, {"smiles": "S=C(Nc1ccccn1)c1ccccn1", "values": [{"measurement": "EC50", "setting": "[1]", "value": "5.37 µM (active)"}, {"measurement": "EC50", "setting": "[2]", "value": "5.48 µM (active)"}]}, {"smiles": "N#C[C@H]1[C@H](c2ccc(C#CC3CCCCC3)cc2)[C@H](CO)N1C(=O)Nc1ccc(F)cc1", "values": [{"measurement": "AC50", "setting": "Paired box protein Pax-8", "value": "20.8 µM (active)"}]}, {"smiles": "COC(=O)N1CCC[C@@]2(CCN(C(=O)Nc3ccc(OC)cc3)C2)C1", "values": [{"measurement": "AC50", "setting": "Cytochrome P450 3A4", "value": "10 µM (inconclusive)"}, {"measurement": "AC50", "setting": "Cytochrome P450 2C9", "value": "20 µM (inconclusive)"}]}, {"smiles": "O=C(CSc1ncccc1C(=O)O)NCCC1=CCCCC1", "values": [{"measurement": "IC50", "setting": "Leucine aminopeptidase", "value": "29.2 µM (active)"}]}, {"smiles": "Nc1nnc(Nc2ccc(Cl)cc2)[nH]1", "values": [{"measurement": "IC50", "setting": "Leucine aminopeptidase", "value": "6.6 µM (active)"}, {"measurement": "AC50", "setting": "[13]", "value": "4.22 µM (active)"}]}, {"smiles": "C=CCn1c(=S)[nH]c2sc3c(c2c1=O)CCC3", "values": [{"measurement": "IC50", "setting": "Leucine aminopeptidase", "value": "46.2 µM (active)"}]}, {"smiles": "C[C@@H]1CCCN(CP(=O)(c2ccccc2)c2ccccc2)C1", "values": [{"measurement": "AC50", "setting": "Cytochrome P450 3A4", "value": "3.98 µM (inconclusive)"}, {"measurement": "AC50", "setting": "Cytochrome P450 2C19", "value": "0.126 µM (inconclusive)"}]}, {"smiles": "CCOC(=O)c1sc(NC(=O)c2cc(-c3ccc(C)cc3)nc3ccccc23)c(C#N)c1C", "values": [{"measurement": "EC50", "setting": "[1]", "value": "10.5 µM (active)"}, {"measurement": "EC50", "setting": "[2]", "value": "9.45 µM (active)"}]}, {"smiles": "CC(C)CN1CC[C@@]2(CCCN(C(=O)c3cnccn3)C2)C1", "values": [{"measurement": "AC50", "setting": "Cytochrome P450 3A4", "value": "15.8 µM (inconclusive)"}]}, {"smiles": "C[C@@H]1CCCCO[C@@H](CN(C)Cc2ccc(C(F)(F)F)cc2)[C@@H](C)CN([C@@H](C)CO)C(=O)c2cc(NS(=O)(=O)c3ccc(F)cc3)ccc2O1", "values": [{"measurement": "AC50", "setting": "Paired box protein Pax-8", "value": "8.7 µM (active)"}]}, {"smiles": "CCCCCCN1C=CC(=C/C=C(\\C#N)C(=O)OCC)C=C1", "values": [{"measurement": "AC50", "setting": "Cytochrome P450 2D6", "value": "14.1 µM (inconclusive)"}, {"measurement": "AC50", "setting": "Cytochrome P450 3A4", "value": "15.8 µM (inconclusive)"}]}]}
